What was measured:
[1] = target: human orexin-2 receptor (hOX2R) (Homo sapiens (Human), UniProt O43614); assay: FLIPR Ca2+ flux assay, orexin-2 receptor; format: cell-based; details: CHO cells expressing the receptor; agonist 70 pM Ala-6,12 orexin-A
Protocol: The utility of the compounds in accordance with the present invention as orexin receptor OX1R and/or OX2R antagonists may be readily determined without undue experimentation by methodology well known in the art, including the “FLIPR Ca^2+ Flux Assay” (Okumura et al., Biochem. Biophys. Res. Comm. 280:976-981, 2001). In a typical experiment the OX1 and OX2 receptor antagonistic activity of the compounds of the present invention was determined in accordance with the following experimental method. For intracellular calcium measurements, Chinese hamster ovary (CHO) cells expressing the rat orexin-1 receptor or the human orexin-2 receptor, are grown in Iscove's modified DMEM containing 2 mM L-glutamine, […], 1% hypoxanthine-thymidine supplement, 100 U/ml penicillin, 100 μg/ml streptomycin and 10% heat-inactivated fetal calf serum (FCS). The cells are seeded at 20,000 cells/well into Becton-Dickinson black 384-well clear bottom sterile plates coated with poly-D-lysine. All reagents were from GIBCO-Invitrogen Corp. The seeded plates are incubated overnight at 37° C. and 5% CO2. Ala-6,12 human orexin-A as the agonist is prepared as a 1 mM stock solution in 1% bovine serum albumin (BSA) and diluted in assay buffer (HBSS containing 20 mM HEPES, 0.1% BSA and 2.5 mM probenecid, pH7.4) for use in the assay at a final concentration of 70 pM. Test compounds are prepared as 10 mM stock solution in DMSO, then diluted in 384-well plates, first in DMSO, then assay buffer. On the day of the assay, cells are washed 3 times with 100 μl assay buffer and then incubated for 60 min (37° C., 5% CO2) in 60 μl assay buffer containing 1 μM Fluo-4AM ester, 0.02% pluronic acid, and 1% BSA. The dye loading solution is then aspirated and cells are washed 3 times with 100 μl assay buffer. 30 μl of that same buffer is left in each well. Within the Fluorescent Imaging Plate Reader (FLIPR, Molecular Devices), test compounds are added to the plate in a volume of 25 μl, incubated for 5 min and finally 25 μl of agonist is added. Fluorescence is measured for each well at 1 second intervals for 5 minutes and the height of each fluorescence peak is compared to the height of the fluorescence peak induced by 70 pM Ala-6,12 orexin-A with buffer in place of antagonist. For each antagonist, IC50 value (the concentration of compound needed to inhibit 50% of the agonist response) is determined. Alternatively, compound potency can be assessed by a radioligand binding assay (described in Bergman et. al. Bioorg. Med. Chem. Lett. 2008, 18, 1425-1430) in which the inhibition constant (Ki) is determined in membranes prepared from CHO cells expressing either the OX1 or OX2 receptor. The intrinsic orexin receptor antagonist activity of a compound which may be used in the present invention may be determined by these assays.

hOX1R = hOX1R (Homo sapiens, UniProt O43613); assay: FLIPR Ca2+ flux assay, orexin-1 receptor; format: cell-based; details: CHO cells expressing the receptor; agonist 70 pM Ala-6,12 orexin-A

Chain of human orexin-2 receptor (hOX2R) (O43614 whole entry): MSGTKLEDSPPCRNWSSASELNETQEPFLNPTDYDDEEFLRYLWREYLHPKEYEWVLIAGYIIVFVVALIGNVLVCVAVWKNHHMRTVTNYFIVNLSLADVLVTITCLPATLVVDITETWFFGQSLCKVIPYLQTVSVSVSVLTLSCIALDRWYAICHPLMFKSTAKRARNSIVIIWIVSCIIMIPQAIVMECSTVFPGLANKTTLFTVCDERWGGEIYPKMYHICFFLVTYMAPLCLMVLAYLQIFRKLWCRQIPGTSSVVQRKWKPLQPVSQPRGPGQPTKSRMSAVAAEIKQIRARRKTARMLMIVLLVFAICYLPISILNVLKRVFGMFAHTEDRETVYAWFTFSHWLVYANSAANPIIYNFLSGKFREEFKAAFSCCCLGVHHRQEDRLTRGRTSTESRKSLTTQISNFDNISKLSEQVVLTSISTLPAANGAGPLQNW

SMILES	IC50 [1]	IC50 (hOX1R)
Cc1oc(N2CC3CN(C(=O)c4ccccc4C4CCC4)CC3C2)nc1C(C)(C)O (stereo not drawn) [Example 12, 2-(2-{5-[(2-cyclobutylphenyl)carbonyl]hexahydropyrrolo[3,4-c]pyrrol-2(1H)-yl}-5-methyl-1,3-oxazol-4-yl)propan-2-ol]	23 nM	5300 nM
Cc1oc(N2CC3CN(C(=O)c4nccnc4N4CCCC4)CC3C2)nc1C(C)(C)O (stereo not drawn) [Example 20, 2-(5-methyl-2-{5-[(3-pyrrolidin-1-ylpyrazin-2-yl)carbonyl]hexahydropyrrolo[3,4-c]pyrrol-2(1H)-yl}-1,3-oxazol-4-yl) propan-2-ol]	252 nM	> 10000 nM
Cc1oc(N2CC3CN(C(=O)c4cccnc4-n4cccn4)CC3C2)nc1C(C)(C)O (stereo not drawn) [Example 18, 2-{5-methyl-2-[5-{[2-(1H-pyrazol-1-yl)pyridin-3-yl]carbonyl}hexahydropyrrolo [3,4-c]pyrrol-2(1H)-yl]-1,3-oxazol-4-yl}propan-2-ol]	35 nM	9850 nM
Cc1oc(N2CC3CN(C(=O)c4ccccc4CC(F)(F)F)CC3C2)nc1C(C)(C)O (stereo not drawn) [Example 23, 2-{5-methyl-2-[5-{(2-(2,2,2-trifluoroethyl)phenyl]carbonyl}hexahydropyrrolo[3,4-c]pyrrol-2(1H)-yl]-1,3-oxazol-4-yl} propan-2-ol]	230 nM	> 10000 nM
CCCc1ccccc1C(=O)N1CC2CN(c3nc(C(C)(C)O)c(C)o3)CC2C1 (stereo not drawn) [Example 6, 2-(5-methyl-2-{5-[(2-propylphenyl)carbonyl]hexahydropyrrolo[3,4-c]pyrrol-2(1H)-yl}-1,3-oxazol-4-yl)propan-2-ol]	32 nM	> 10000 nM
CCOc1ncccc1C(=O)N1CC2CN(c3nc(C(C)(C)O)c(C)o3)CC2C1 (stereo not drawn) [Example 2, 2-(2-{5-[(2-Ethoxypyridin-3-yl)carbonyl]hexahydropyrrolo[3,4-c]pyrrol-2(1H)-yl}-5-methyl-1,3-oxazol-4-yl)propan-2-ol]	545 nM	> 10000 nM
Cc1oc(N2CC3CN(C(=O)c4ccccc4OC(F)F)CC3C2)nc1C(C)(C)O (stereo not drawn) [Example 22, 2-{2-[5-{[2-(difluoromethoxy)phenyl]carbonyl}hexahydropyrrolo[3,4-c]pyrrol-2(1H)-yl]-5-methyl-1,3-oxazol-4-yl} propan-2-ol]	101 nM	> 10000 nM
Cc1oc(N2CC3CN(C(=O)c4ccccc4C4CC4)CC3C2)nc1C(C)(C)O (stereo not drawn) [Example 11, 2-(2-{5-[(2-cyclopropylphenyl)carbonyl]hexahydropyrrolo[3,4-c]pyrrol-2(1H)-yl}-5-methyl-1,3-oxazol-4-yl)propan-2-ol]	87 nM	> 10000 nM
Cc1oc(N2CC3CN(C(=O)c4ccccc4C4CC4(F)F)CC3C2)nc1C(C)(C)O (stereo not drawn) [Example 24, 2-{2-[5-{[2-(2,2-difluorocyclopropyl)phenyl]carbonyl}hexahydropyrrolo[3,4-c]pyrrol-2(1H)-yl]-5-methyl-1,3-oxazol-4-yl}propan-2-ol]	22 nM	> 10000 nM
Cc1oc(N2CC3CN(C(=O)c4ccccc4-n4nccn4)CC3C2)nc1C(C)(C)O (stereo not drawn) [Example 1, (2-(2H-1,2,3-triazol-2-yl)phenyl)(5-(4-(2-hydroxypropan-2-yl)-5-methyloxazol-2-yl)hexahydropyrrolo[3,4-c]pyrrol-2(1H)-yl)methanone]	27 nM	6880 nM
Cc1oc(N2CC3CN(C(=O)c4ncccc4-c4ccccc4)CC3C2)nc1C(C)(C)O (stereo not drawn) [Example 5, 2-(5-methyl-2-{5-[(3-phenylpyridin-2-yl)carbonyl]hexahydropyrrolo[3,4-c]pyrrol-2(1H)-yl}-1,3-oxazol-4-yl) propan-2-ol]	583 nM	> 10000 nM
Cc1oc(N2CC3CN(C(=O)c4ccc(F)cc4-n4nccn4)CC3C2)nc1C(C)(C)O (stereo not drawn) [Example 16, 2-{2-[5-{[4-fluoro-2-(2H-1,2,3-triazol-2-yl)phenyl]carbonyl}hexahydropyrrolo [3,4-c]pyrrol-2(1H)-yl]-5-methyl-1,3-oxazol-4-yl}propan-2-ol]	32 nM	3070 nM
Cc1oc(N2CC3CN(C(=O)c4nccnc4-n4cccn4)CC3C2)nc1C(C)(C)O (stereo not drawn) [Example 21, 2-{5-methyl-2-[5-{[3-(1H-pyrazol-1-yl)pyrazin-2-yl]carbonyl}hexahydropyrrolo[3,4-c]pyrrol-2(1H)-yl]-1,3-oxazol-4-yl} propan-2-ol]	112 nM	> 10000 nM
Cc1oc(N2CC3CN(C(=O)c4ccccc4N4CCCC4)CC3C2)nc1C(C)(C)O (stereo not drawn) [Example 13, 2-(5-methyl-2-{5-[(2-pyrrolidin-1-ylphenyl)carbonyl]hexahydropyrrolo [3,4-c]pyrrol-2(1H)-yl}-1,3-oxazol-4-yl)propan-2-ol]	49 nM	> 10000 nM
Cc1oc(N2CC3CN(C(=O)c4cccnc4OCC(F)(F)F)CC3C2)nc1C(C)(C)O (stereo not drawn) [Example 3, 2-{5-methyl-2-[5-{[2-(2,2,2-trifluoroethoxy)pyridin-3-yl]carbonyl}hexahydropyrrolo [3,4-c]pyrrol-2(1H)-yl]-1,3-oxazol-4-yl}propan-2-ol]	106 nM	> 10000 nM
Cc1oc(N2CC3CN(C(=O)c4ncccc4-n4nccn4)CC3C2)nc1C(C)(C)O (stereo not drawn) [Example 17, 2-{5-methyl-2-[5-{(3-(2H-1,2,3-triazol-2-yl)pyridin-2-yl]carbonyl}hexahydropyrrolo[3,4-c]pyrrol-2(1H)-yl]-1,3-oxazol-4-yl}propan-2-ol]	84 nM	> 10000 nM
Cc1oc(N2CC3CN(C(=O)c4cccnc4-c4ccccc4)CC3C2)nc1C(C)(C)O (stereo not drawn) [Example 19, 2-(5-methyl-2-{5-[(2-phenylpyridin-3-yl)carbonyl]hexahydropyrrolo [3,4-c]pyrrol-2(1H)-yl}-1,3-oxazol-4-yl)propan-2-ol]	60 nM	> 10000 nM
Cc1oc(N2CC3CN(C(=O)c4ccccc4OCC(F)(F)F)CC3C2)nc1C(C)(C)O (stereo not drawn) [Example 7, 2-{5-methyl-2-[5-{[2-(2,2,2-trifluoroethoxy)phenyl]carbonyl}hexahydropyrrolo[3,4-c]pyrrol-2(1H)-yl]-1,3-oxazol-4-yl} propan-2-ol]	165 nM	> 10000 nM
Cc1oc(N2CC3CN(C(=O)c4ccccc4-n4ncnn4)CC3C2)nc1C(C)(C)O (stereo not drawn) [Example 15, 2-{5-methyl-2-[5-{[2-(2H-tetrazol-2-yl)phenyl]carbonyl}hexahydropyrrolo [3,4-c]pyrrol-2(1H)-yl]-1,3-oxazol-4-yl}propan-2-ol]	65 nM	> 10000 nM
Cc1oc(N2CC3CN(C(=O)c4cccnc4OCC(F)F)CC3C2)nc1C(C)(C)O (stereo not drawn) [Example 9, 2-{2-[5-{[2-(2,2-difluoroethoxy)pyridin-3-yl]carbonyl}hexahydropyrrolo [3,4-c]pyrrol-2(1H)-yl]-5-methyl-1,3-oxazol-4-yl} propan-2-ol]	312 nM	> 10000 nM
Cc1oc(N2CC3CN(C(=O)c4ccccc4OC(F)(F)F)CC3C2)nc1C(C)(C)O (stereo not drawn) [Example 4, 2-{5-methyl-2-[5-{[2-(trifluoromethoxy)phenyl]carbonyl}hexahydropyrrolo[3,4-c]pyrrol-2(1H)-yl]-1,3-oxazol-4-yl} propan-2-ol]	604 nM	> 10000 nM
Cc1oc(N2CC3CN(C(=O)c4cccnc4OC(C)C)CC3C2)nc1C(C)(C)O (stereo not drawn) [Example 8, 2-{5-methyl-2-[5-{[2-(1-methylethoxy)pyriddin-3-yl]carbonyl}hexahydropyrrolo [3,4-c]pyrrol-2(1H)-yl]-1,3-oxazol-4-yl}propan-2-ol]	126 nM	> 10000 nM
Cc1oc(N2CC3CN(C(=O)c4ccccc4-n4cccn4)CC3C2)nc1C(C)(C)O (stereo not drawn) [Example 14, 2-{5-methyl-2-[5-{(2-(1H-pyrazol-1-yl)phenyl]carbonyl}hexahydropyrrolo [3,4-c]pyrrol-2(1H)-yl]-1,3-oxazol-4-yl}propan-2-ol]	72 nM	> 10000 nM
Cc1oc(N2CC3CN(C(=O)c4cccnc4CC(F)(F)F)CC3C2)nc1C(C)(C)O (stereo not drawn) [Example 10]	46 nM	> 10000 nM

From patent publication US9987255B2, “5,5-bicyclic oxazole orexin receptor antagonists” (Merck Sharp & Dohme Corp., priority 2014, dated 2018)
